The values that follow are results of earlier work, collected in US20020054922A1, “Cosmetic composition and method” (priority 2000, published 2002).

For this data set, the system named is skin punch biopsy wound. The conditions noted are these: 25 micrograms estradiol per 24 hours by skin patch.

Take `C[C@]12CC[C@@H]3c4ccc(O)cc4CC[C@H]3[C@@H]1CC[C@@H]2O` [estrogen, estradiol]: under “day 7”, the “fibronectin levels compared to placebo” value is on record as “increased fibronectin levels”. The “wound size compared to placebo” value (day 7, aged men and women) is listed as “decrease in wound size”. Also, the “collagen levels compared to placebo” value (days 7 and 80) is “increased collagen levels”.
